According to US6713048B2, “Δ9 tetrahydrocannabinol (Δ9 THC) solution metered dose inhalers and methods of use” (Virginia Commonwealth University, priority 1998, dated 2004):

Experiments:
[1] = Apparent solubility of Δ^9 THC in ethanol/HFA propellant blends; assay type: physicochemical
Source text: When the propellant is a hydrofluoroalkane, it has been discovered that the propellant may be used with or without a solvent such as ethanol. Higher percentages of solvent generally allow higher levels of dissolution of Δ^9 THC. However, higher percentages of solvent also cause droplet size to increase. […] Within this range of percentages, pharmaceutically useful concentrations of Δ^9 THC can be achieved and droplet size is still small enough (<5.8 um) to provide excellent aerosol delivery of the drug. While these ratios reflect preferred embodiments of the invention, it will be recognized by those of skill in the art that the exact ratio of propellant to solvent (e.g. ethanol) may vary according to the desired final concentration of Δ^9 THC and droplet size. Any ratio of propellant to solvent that results in appropriate sized droplets and adequate dissolution of the Δ^9 THC may be used in the practice of this invention, and this will generally be in the range of from 100 to 80% propellant and 0 to 20% solvent. It is expected that a wide variety of solvents, such as ethanol, propanol, propylene glycol, glycerol, polyethylene glycol, etc. may be used in the preparation of formulations contemplated by this invention.

Male ICR mice = test: Antinociception, tail-flick test; assay type: in vivo; conditions: for % MPE (mean ± S.E.): 20 min after treatment
Description: Male ICR mice, weighing approximately 30 g, obtained from Harlan Laboratories (Indianapolis, Ind.) were provided a light cycle of approximately 6 a.m. to 6 p.m., and the temperature remained approximately 23° C. The mice were placed in the lab and allowed to accommodate to the surroundings the evening prior to testing. Animals were allowed food (Harlan Teklab, Madison, Wis.) and water ad libitum.
The exposure chamber was a modified, inverted, 1-liter separation funnel, housed under a fume hood, which allowed four mice to be simultaneously exposed to the aerosol. Air was drawn through the chamber at a rate of approximately 60 ml/minute and filtered through glass wool (Corning Inc., Corning, N.Y.) and charcoal traps (SKC Inc., Eighty Four, Pa.) upon exiting the exposure chamber. Each actuation of Δ^9-THC or vehicle was delivered once per 5 s and the entire exposure period was 10 min. Mice were exposed to 20, 40 or 60 actuations of aerosolized Δ^9-THC or 60 actuations of vehicle.
Mice were placed in separate clear chambers (16.5 cm×25.5 cm×11.5 cm high) and assessed for hypomotility using a Digiscan Animal Activity Monitor (Omnitech Electronics Inc., Columbus, Ohio) in which the total number of photocell-light beam interruptions was counted. Antinociception was assessed in the tail-flick test (D'Amour, F. E., Smith, D. L., A method for determining loss of pain sensation, J Pharm Exp Ther, 72:74-79 (1941)) with heat intensity adjusted to give baseline latencies ranging from 2.0-4.0 seconds. A cut-off time of 10 seconds was used to limit tissue damage. Percent maximum possible effect (%MPE) was determined according to the following formula:
%MPE=[(test latency-baseline latency)/(cut-off-baseline latency)]*100
A ring-test procedure was used to assess catalepsy. The percent of time during a five minute observation period that mice remained motionless, except for movements related to respiration, while stationed on a 5.7 cm diameter ring stand 23 cm above the laboratory bench, was assessed. Body temperature was assessed by inserting a thermometer probe (Traceable Digital, Control Co., Friendswood, Tex.) 2.5 cm into the rectum. Subjects were assessed for baseline tail-flick latency and rectal temperature prior to drug or vehicle administration. […] Locomotor activity, tail-flick latency, catalepsy, and hypothermia were assessed 5, 20, 40, and 60 minutes, respectively, after aerosol exposure. An additional group of animals was given an i.v. injection of Δ^9-THC (0.3, 1, 3, or 10 mg/kg) or vehicle into a lateral tail vein and assessed in the tail-flick test 20 minutes later. All injections were given in a volume of 0.1 ml per 10 g animal weight.
The statistical analysis of the data was as follows. Data are represented by means±standard error (s.e.). Statistical analysis of the data was performed using Student t-tests (for the physiochemical comparisons of the aerosol), or ANOVA (for pharmacological studies), with significance set at p<0.05. Post hoc tests for significant ANOVAs included either Dunnett's test or Tukey/Kramer post-hoc analysis. […] A sample size of 6-8 mice was used in each group.

[2] = test system: Nausea and emesis due to Cancer chemotherapy; conditions: oral 10 mg/m^2 THC; 84 patients; cited from earlier work
[3] = test system: Spasticity related to multiple sclerosis; conditions: oral 5 to 15 mg THC; 8 patients, single blind; cited from earlier work

Question: For `CCCCCc1cc(O)c2c(c1)OC(C)(C)[C@@H]1CCC(C)=C[C@@H]21` (relative stereo) [Δ^9 THC, (6aR-trans)-6a,7,8,10a-tetrahydro-6,6,9-trimethyl-3-pentyl-6H-dibenzo[b,d]-pyran-1-ol], which “Apparent Solubility Mean (±SD)” value ([1]; 5% Ethanol/95% HFA 134a) is on record?
Answer: The value was 1.585% w/w.

Question: And the “Apparent Solubility Mean (±SD)” value ([1]; 5% Ethanol/95% HFA 227)?
Answer: Its value is 1.339% w/w.

Question: And the “Apparent Solubility Mean (±SD)” value ([1]; 10% Ethanol/90% HFA 227)?
Answer: Its value is 3.240% w/w.

Question: And the “Apparent Solubility Mean (±SD)” value ([1]; 10% Ethanol/90% HPA 134a)?
Answer: Its value is 3.511 % w/w.

Question: And the “Apparent Solubility Mean (±SD)” value ([1]; 15% Ethanol/85% HFA 134a)?
Answer: Its value is 4.883% w/w.

Question: And the “Apparent Solubility Mean (±SD)” value ([1]; 15% Ethanol/85% HFA 227)?
Answer: Its value is 5.94 % w/w.

Question: What about the “Apparent Solubility Mean (±SD)” value ([1]; 100% HFA 134a, n = 5) of the same compound?
Answer: The value was 0.224% w/w.

Question: And the “Apparent Solubility Mean (±SD)” value ([1]; 100% HFA 227)?
Answer: The value was 0.147 % w/w.

Question: And the ED50 (Male ICR mice; Mus musculus, intravenous, read-out: antinociceptive ED50 (95% C.L.))?
Answer: The ED50 was 2.4 mg/kg.

Question: What about the “antinociceptive ED50 (95% C.L.)” value (Male ICR mice; inhalation) of the same compound?
Answer: Its value is 30 (20-44) actuations.

Question: And the “% MPE (mean ± S.E.)” value (Male ICR mice; inhalation, 20 actuations)?
Answer: Its value is 37 ± 11 % MPE.

Question: And the “% MPE (mean ± S.E.)” value (Male ICR mice; inhalation, 40 actuations)?
Answer: Its value is 58 ± 14 % MPE.

Question: And the “% MPE (mean ± S.E.)” value (Male ICR mice; inhalation, 60 actuations)?
Answer: Its value is 78 ± 11 % MPE.

Question: And the “% MPE (mean ± S.E.)” value (Male ICR mice; intravenous, 1 mg/kg)?
Answer: Its value is 31 ± 8 % MPE.

Question: What about the “% MPE (mean ± S.E.)” value (Male ICR mice; intravenous, 3 mg/kg) of the same compound?
Answer: Its value is 70 ± 14 % MPE.

Question: And the “% MPE (mean ± S.E.)” value (Male ICR mice; intravenous, 10 mg/kg)?
Answer: Its value is 67 ± 11 % MPE.

Question: What about the “antiemetic efficacy compared with prochloperazine” value [2] of the same compound?
Answer: Its value is “THC more effective than”.

Question: What about the “patients with both objective and subjective improvement” value [3] of the same compound?
Answer: Its value is “tremor. 2 of 8 patients had”.

Question: What about the “patients with mild subjective improvement in tremor” value [3] of the same compound?
Answer: Its value is 5 of 8 patients had mild.
